Assay results from patent publication US20230339991A1, “HYPOXIA-ACTIVATED DNA ALKYLATING AGENT AND MEDICAL USE THEREOF” (ASCENTAWITS PHARMACEUTICALS, LTD., priority 2020, published 2023).
Read-outs that look alike come from different tables or passages of the source.

Key:
[1] = Liver microsome stability, human; details: for Remaining percentage after 30 minutes: Human
Experimental: (§1) 1) Two individual experiments were performed.
(§2) 1a) With NADPH: 10 μL of 20 mg/mL liver microsomes and 40 μL of 10 mM NADPH were added to the culture solution. The final concentrations of microsomes and NADPH were 0.5 mg/mL and 1 mM, respectively.
(§3) 1b) Without NADPH: 10 μL of 20 mg/mL liver microsomes and 40 μL of ultrapure H2O were added to the culture solution. The final concentration of microsomes was 0.5 mg/mL.
(§4) 3) 50 μL of aliquots were taken from the reaction solution at 0 min and 30 min. The reaction was terminated by adding 4 volumes of cold acetonitrile and four internal standards (IS, 100 nM alprazolam, 200 nM caffeine, 200 nM labetalol and 2 μM ketoprofen). The samples were centrifuged at 3, 220×g for 40 min. The aliquots of 100 μL of supernatant were mixed with 100 μL of ultrapure H2O and then used for LC-MS/MS analysis. All experiments were performed in duplicate.

[2] = Liver microsome stability, rat; details: for Remaining percentage after 30 minutes: Rat
Experimental: as §1, §2, §3, §4

[3] = Liver microsome stability, dog; details: for Remaining percentage after 30 minutes: Dog
Experimental: as §1, §2, §3, §4

hepatoma cell HepG2 = assay: Hypoxia-dependent proliferation inhibition, HepG2; assay type: cell-based, human; details: for IC50: Homo sapiens; for HCR (hypoxic cytotoxicity ratio): IC50 ratio normoxia/N2
Source text: (§5) To determine the effect of the drug A according to the present invention on cancer cell proliferation, the antiproliferative activity of these compounds against the cancer cell was detected in a porous CTG-based assay. The effects of test compounds on cell proliferation under normoxic (21% O2) and hypoxic (<0.01% O2) conditions were compared. H460 cells were routinely cultured to 80%-90% of cell saturation, and when the number reached the requirement, resuspended with the corresponding culture medium, counted and prepared into cell suspension with appropriate density. The cell suspension was added to two types of 24-well plates, 495 μL per well with 1×10^4/well of cell density. 24-well plates inserted with glass insert were used for hypoxic tests, and ordinary plastic 24-well plates were used for normoxic tests. 5 μL of each compound was added to the hypoxic and normoxic reaction systems, respectively. After reacting for 3 hours in the hypoxic workstation or the normoxic incubator, the compounds were washed away using the culture medium and the system was placed in an incubator for another 72 hours. The final concentrations of each compound tested under normoxic conditions were as follows: TH-302 was 1000, 200, 40, 8, 1.6, 0.32 μM; test compound A (compound 32) was 1000, 200, 40, 8, 1.6, 0.32 μM; compound 26 was 500, 50, 5, 0.5, 0.05 μM. The final concentrations of each compound tested under hypoxic conditions were as follows: TH-302 was 10, 2, 0.4, 0.08, 0.016, 0.0032 μM; test compound A (compound 32) was 50, 5, 0.5, 0.05, 0.005, 0.0005 μM; compound 26 was 500, 50, 5, 0.5, 0.05 μM. After 72 hours of cell culture, 300 μL of culture medium was removed from each well of 24-well plate. 50 μL of CTG was added into each well. The plate was mixed and shaked for 2 min, and kept in dark for 15 minutes at room temperature. 100 μL per well of culture medium was transferred from 24-well plate to 96-well white plate, and the chemiluminescence signal value was read with Multifunctional enzyme marker with a reading time of 1000 ms. The IC50 was calculated using GraphPad Prism 5 software. […] The compound TH-302 (a hypoxic-activated prodrug entering phase III clinical studies, cas No. 918633-87-1, see the literature Sun J D, Liu Q, Wang J, et al. Selective tumor hypoxia targeting by hypoxia-activated prodrug TH-302 inhibits tumor growth in preclinical models of cancer. [J]. Clinical Cancer Research An Official Journal of the American Association for Cancer Research, 2012, 18(3): 758-70, structural formula is
Similarly, the above-mentioned three compounds were tested for the proliferation inhibition effect on hepatoma cell HepG2, and the results are shown in the following table 5.

H460 cancer cells = assay: Hypoxia-dependent proliferation inhibition, H460, CTG; assay type: cell-based, human; details: for IC50: Homo sapiens, 3 h exposure
Source text: as §5, with “formula is […]” for “formula is”

[4] = Liver microsome stability, mouse; details: for Remaining percentage after 30 minutes: Mouse
Experimental: as §1, §2, §3, §4

[5] = N2 (hypoxic), read-out: IC50 N2
[6] = normoxia, read-out: IC50 Normoxia
[7] = NCI-H460, hypoxic (<0.01% O2), read-out: N2 IC50
[8] = NCI-H460, normoxic (21% O2), read-out: Normoxic IC50

| SMILES | stability in liver microsomes ([1]; human) | stability in liver microsomes ([2]; rat) | stability in liver microsomes ([3]; canine) | IC50 (hepatoma cell HepG2; [5]) [µM] | IC50 (hepatoma cell HepG2; [6]) [µM] | HCR (hypoxic cytotoxicity ratio) (hepatoma cell HepG2) | IC50 ratio: Normoxia/N2 (H460 cancer cells) | IC50 (H460 cancer cells; [7]) [µM] | stability in liver microsomes ([4]; mouse) | Remaining percentage after 30 minutes ([1]; without NADPH) [%] | Remaining percentage after 30 minutes ([2]; with NADPH) [%] | Remaining percentage after 30 minutes ([2]; without NADPH) [%] | Remaining percentage after 30 minutes ([3]; with NADPH) [%] | Remaining percentage after 30 minutes ([3]; without NADPH) [%] | Remaining percentage after 30 minutes ([4]; with NADPH) [%] | Remaining percentage after 30 minutes ([4]; without NADPH) [%] | Remaining percentage after 30 minutes ([1]; with NADPH, 2 μM) [%] | IC50 (H460 cancer cells; [8]) [µM] |
| --- | --- | --- | --- | --- | --- | --- | --- | --- | --- | --- | --- | --- | --- | --- | --- | --- | --- | --- |
| O=[N+]([O-])c1ccc(C(OP(=O)(N2CC2)N2CC2)C(F)(F)F)c2ccccc12 (racemic) [Compound A] | relatively stable | not stable | not stable | 4.78 | 20.6 | 4.31 | 12.5 | 0.04 | relatively stable | – | – | – | – | – | – | – | – | – |
| O=[N+]([O-])c1ccc([C@@H](OP(=O)(N2CC2)N2CC2)C(F)(F)F)c2ccccc12 (single isomer, unassigned) [Compound C] | – | – | – | – | – | – | – | – | – | 82.15 | 71.05 | 111.15 | 31.16 | 101.62 | 102.89 | 103.07 | – | – |
| CC(OP(=O)(N1CC1)N1CC1)c1ccc([N+](=O)[O-])c2ccccc12 (stereo not drawn) [Compound D] | – | – | – | 1.5 | 16.7 | 11.13 | 20 | 0.04 | – | 107.67 | 6.81 | 103.00 | 9.97 | 99.10 | 32.37 | 96.37 | 74.28 | 0.8 |
| Cn1c(COP(=O)(NCCBr)NCCBr)cnc1[N+](=O)[O-] [TH-302, Evofosfamide] | – | – | – | 12.4 | 918 | 72.82 | 680 | 0.02 | – | – | – | – | – | – | – | – | – | 13.6 |
